The record followed here is patent US20230183233A1, “Bicyclic Pyridin-2-one and pyrimidin-4-one Derivatives Useful As a Factor XIa Inhibitors” (Janssen Pharmaceutica NV, priority 2021, published 2023).

Where two headings read alike, the source gives them in different places. 5‑FAM = 5-carboxyfluorescein (5-FAM) label at the N-terminus

What all share (assay type): biochemical
Test [1] addresses T1, Factor XIa (Homo sapiens, UniProt P03951). Briefly: Factor XIa inhibition assay utilizing a fluorophore-quencher pair peptide substrate (FLINT, kinetic read). Conditions: peptide substrate cleaved by FXIa; fit to a substrate inhibition model.
The target in a further test is human plasma kallikrein (Homo sapiens, UniProt P03952). Briefly: Kallikrein inhibition assay utilizing a quenched AMC peptide substrate (FLINT, kinetic read). Conditions: read-out: Kallikrein KIN Inh IC50.
The target of test [2] is T1, Factor XIa. Nature of the test: Factor XIa inhibition assay utilizing a fluorophore-quencher pair peptide substrate (FLINT, kinetic read). To be noted: read-out: FXIa KIN Inh IC50. The source says: Biological Example 1: Factor XIa Inhibition Assay Utilizing a Fluorophore-Quencher Pair Peptide Substrate A fluorescence intensity (FLINT) based assay was used to monitor inhibition of Factor XIa. The peptide substrate, 5Fam-[…]-K5Tamra (purchased from New England Peptide) was chosen based on the FXI sequence. Conversion of zymogen FXI to its activated form, FXIa, occurs by proteolytic cleavage by […] at two sites, Arg146 and Arg180. The custom peptide used in this assay was based on the Arg146 cleavage site of FXI. The peptide substrate was designed with a fluorophore-quencher pair, where the fluorescence is quenched until FXIa cleaves the 8-mer peptide after the Arg residue.
The 2× Factor XIa stock solution was prepared by diluting 6.562 μM stock in 1× assay buffer for a […].
Test compound(s) were run in an 11-point, 3-fold serial dilution with a final top compound concentration of 100 nM. Final DMSO in assay was 2%. FXIa was preincubated with compound for 30-minutes and then substrate was added to initiate the reaction. The assay was run with kinetic (KIN) reads at 5 min intervals over 30 minutes. […] More specifically, the assay was run as follows: • 100 nL of 0.01 mM test compound was dispensed into black 384-well non-binding Greiner BioOne 784900 plate for 0.1 μM final concentration; • 5 μL of 1× assay buffer was dispensed to column 24 (low control) and 5 μL 2× Factor XIa solution was dispensed to columns 1-23 (column 23 high control); • the plate was centrifuged with a “cover” plate at 500 rpm for 1 min • the plate was pre-incubated for 30 minutes at room temperature with plate covered; • 5 μL of 2× 5Fam-[…]-K5Tamra peptide substrate was dispensed into the entire plate, columns 1-24; • the plate was centrifuged with a “cover” plate at 500 rpm for 1 min; • the plate was read monitoring fluorescence intensity on the BMG PHERAStar at room temperature, using fluorescence module 485 nm/520 nm.
Percent inhibition (IC50) curves were generated per compound tested, and data was analyzed using a 4-parameter logistic fit using GeneData Screener. The relative fluorescence unit (RFU) values were normalized to percent inhibition using the following equation:
% inhibition=((HC−LC)−(compound−LC)/(HC−LC))*100 where LC—low control=mean signal of no Factor XIa or 100% inhibition of Factor XIa; HC—high control=mean signal of Factor XIa+5Fam-[…]-K5Tamra peptide substrate with DMSO only.
An 11-point dose response curve for the test compound(s) was generated using GENDATA to determine IC50 value based on the following equation:
Y=Bottom+(Top−Bottom)/(1+10^((log IC50−X)*HillSlope)) where Y is the % inhibition in the presence of X inhibitor concentration, Top=high control=mean signal of Factor XIa+5Fam-[…]-K5Tamra peptide substrate with DMSO only; Bottom=low control−mean signal of no Factor XIa or 100% inhibition of Factor XIa; HillSlope—Hill coefficient; and IC50=concentration of compound with 50% inhibition in relation to top/high control.

human plasma kallikrein, sequence (P03952 391-638 limits assumed): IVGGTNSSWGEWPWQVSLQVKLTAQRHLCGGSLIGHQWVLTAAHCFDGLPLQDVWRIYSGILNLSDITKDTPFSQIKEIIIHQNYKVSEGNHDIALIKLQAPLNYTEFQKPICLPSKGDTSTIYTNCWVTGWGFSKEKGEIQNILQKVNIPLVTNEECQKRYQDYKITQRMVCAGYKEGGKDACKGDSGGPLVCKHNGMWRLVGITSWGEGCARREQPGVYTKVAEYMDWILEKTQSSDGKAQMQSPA
human plasma kallikrein, sequence (P03952 20-390 partner limits assumed): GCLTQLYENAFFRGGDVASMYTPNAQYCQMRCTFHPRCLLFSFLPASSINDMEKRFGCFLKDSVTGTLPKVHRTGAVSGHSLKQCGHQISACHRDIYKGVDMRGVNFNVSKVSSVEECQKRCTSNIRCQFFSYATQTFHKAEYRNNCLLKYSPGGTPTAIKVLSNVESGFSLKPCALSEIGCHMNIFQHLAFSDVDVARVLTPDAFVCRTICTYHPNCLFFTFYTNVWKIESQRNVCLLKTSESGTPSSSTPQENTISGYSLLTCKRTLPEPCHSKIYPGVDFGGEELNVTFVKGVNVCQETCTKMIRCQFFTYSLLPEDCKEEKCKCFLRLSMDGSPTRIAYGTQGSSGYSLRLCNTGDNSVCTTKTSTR
T1 sequence (P03951 388-625 limits assumed): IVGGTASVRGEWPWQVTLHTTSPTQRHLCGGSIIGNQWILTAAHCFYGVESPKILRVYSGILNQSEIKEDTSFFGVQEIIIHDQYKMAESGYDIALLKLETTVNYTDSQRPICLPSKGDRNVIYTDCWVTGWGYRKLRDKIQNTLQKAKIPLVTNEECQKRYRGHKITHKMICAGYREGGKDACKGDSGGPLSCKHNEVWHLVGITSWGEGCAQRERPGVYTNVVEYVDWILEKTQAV
T1 sequence (P03951 19-387 partner limits assumed): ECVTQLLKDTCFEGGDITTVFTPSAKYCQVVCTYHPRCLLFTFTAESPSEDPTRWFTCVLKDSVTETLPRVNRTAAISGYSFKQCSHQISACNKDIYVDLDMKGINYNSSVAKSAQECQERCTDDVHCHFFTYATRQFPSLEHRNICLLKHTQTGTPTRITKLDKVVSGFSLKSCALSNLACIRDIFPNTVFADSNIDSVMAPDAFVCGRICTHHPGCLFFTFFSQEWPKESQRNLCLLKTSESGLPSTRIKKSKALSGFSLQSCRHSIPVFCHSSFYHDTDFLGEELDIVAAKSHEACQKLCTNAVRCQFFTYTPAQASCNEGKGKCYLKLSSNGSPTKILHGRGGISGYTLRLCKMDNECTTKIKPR

In the case of “5Fam-KLTRAETV-K5Tamra ({5‑FAM}-KLTRAETVK-{5‑TAMRA}) ["The peptide substrate ... designed with a fluorophore-quencher pair", "based on the Arg146 cleavage site of FXI", purchased from New England Peptide]”, in the test with Factor XIa [1], the Ki stood at 61600 nM, the Km amounted to 12.4 µM and the catalytic constant (kcat) was 0.86 s⁻¹.
Take `C[C@H]1C[C@@H](c2[nH]c(-c3ccc(N)nc3F)nc2F)n2c1cc(-c1c(-n3cnnn3)ccc(Cl)c1F)cc2=O` (relative stereo) [Example 35, (1*S,3*S)-3-(2-(6-Amino-2-fluoropyridin-3-yl)-4-fluoro-1H-imidazol-5-yl)-7-(3-chloro-2-fluoro-6-(1H-tetrazol-1-yl)phenyl)-1-methyl-2,3-dihydroindolizin-5(1H)-one]: the figures for the IC50 at human plasma kallikrein (values given with μM) and at Factor XIa [2] (values in nM) were 9.8 µM and about 610 nM, respectively.
As for `C[C@H]1C[C@H](c2ncc(-c3ccc(N)nc3Cl)[nH]2)n2c1cc(-c1c(-n3cnnn3)ccc(Cl)c1F)cc2=O` (relative stereo) [Example 37, (1*S,3*R)-3-(5-(6-Amino-2-chloropyridin-3-yl)-1H-imidazol-2-yl)-7-(3-chloro-2-fluoro-6-(1H-tetrazol-1-yl)phenyl)-1-methyl-2,3-dihydroindolizin-5(1H)-one], the IC50 amounted to 7.8 µM at human plasma kallikrein (values given with μM) and 283 nM on Factor XIa [2] (values in nM).
`C[C@H]1C[C@@H](c2ncc(-c3ccnc(CN)c3)[nH]2)n2c1cc(-c1c(-n3cnnn3)ccc(Cl)c1F)cc2=O` (relative stereo) [Example 39, (1*S,3*S)-3-(5-(2-(Aminomethyl)pyridin-4-yl)-1H-imidazol-2-yl)-7-(3-chloro-2-fluoro-6-(1H-tetrazol-1-yl)phenyl)-1-methyl-2,3-dihydroindolizin-5(1H)-one]: the IC50 on Factor XIa [2] (values given with μM) is 6600 nM.
For `C[C@H]1C[C@@H](c2ncc(-c3ccnn3C)[nH]2)n2c1nc(-c1c(-n3cnnn3)ccc(Cl)c1F)cc2=O` (relative stereo) [Example 146, (6*S,8*S)-2-(3-Chloro-2-fluoro-6-(1H-tetrazol-1-yl)phenyl)-8-methyl-6-(5-(1-methyl-1H-pyrazol-5-yl)-1H-imidazol-2-yl)-7,8-dihydropyrrolo[1,2-a]pyrimidin-4(6H)-one], the half-maximal inhibitory concentration (IC50) was 0.296 µM on human plasma kallikrein (values in nM) and 9 nM at Factor XIa [2] (values in nM).
Take `C[C@H]1C[C@@H](c2ncc(-c3ccc(N)nc3F)[nH]2)n2c1nc(-c1c(-n3cnnn3)ccc(Cl)c1F)cc2=O` (relative stereo) [Example 149, (6*S,8*S)-6-(5-(6-Amino-2-fluoropyridin-3-yl)-1H-imidazol-2-yl)-2-(3-chloro-2-fluoro-6-(1H-tetrazol-1-yl)phenyl)-8-methyl-7,8-dihydropyrrolo[1,2-a]pyrimidin-4(6H)-one]: the 50% inhibitory concentration (IC50) is 0.0235 µM on human plasma kallikrein (values in nM) and 0.3 nM at Factor XIa [2] (values in nM).
The matching figures for `Nc1ccc(-c2cnc([C@H]3CC4(CC4)c4cc(-c5cc(Cl)ccc5-n5cnnn5)cc(=O)n43)[nH]2)c(F)n1` (single isomer, unassigned) [Example 3]: 0.0392 µM and 2.7 nM.
Regarding `CC1C[C@@H](c2ncc(-c3cnns3)[nH]2)n2c1nc(-c1c(-n3cnnn3)ccc(Cl)c1F)cc2=O` (stereo in doubt) [Example 110, (6*S)-6-(5-(1,2,3-Thiadiazol-5-yl)-1H-imidazol-2-yl)-2-(3-chloro-2-fluoro-6-(1H-tetrazol-1-yl)phenyl)-8-methyl-7,8-dihydropyrrolo[1,2-a]pyrimidin-4(6H)-one], the IC50 amounted to 2.3 µM on human plasma kallikrein (values given with μM) and 92.1 nM on Factor XIa [2] (values in nM).
